Like-named read-outs stand apart in the source and are kept apart here. Values belong to the compound of their own block, whether it stands above or below them.
How the values were obtained:
[1] = Acid dissociation constant (pKa); assay type: physicochemical
bone marrow [2] = assay: Bone marrow hypocellularity, pathologist assessment of haematoxylin and eosin sections; assay type: in vivo, rat; conditions: 25 mg/kg IV; day 5 and 9; FIG. 13
Procedure: Female nude rats were bred at AstraZeneca, and put into study at a minimum weight of 150 g. Animals were inoculated in the flank with SW620 human tumour cells and dosing started when tumours had reached 0.4-0.9 cm^3. Compounds were dosed intravenously (IV) at 5 ml/kg with either control, AZD1152 or AZD1152 hqpa nanoparticle formulation B or E. AZD1152 was dosed in tris buffer vehicle (days 1-4 IV, each dose at 25 mg/kg) and AZD1152 hqpa nanoparticle formulation was dosed in physiological saline (dosed 25 mg/kg on each of days 1 and 3 IV). At the time points indicated animals were sacrificed and tumour, blood and femur/bone marrow samples taken. Effects of the treatments on the tumour and the bone marrow were scored by a pathologist assessment of haematoxylin and eosin stained sections derived from the femur.
(§1) Rats were injected IV with BIND Placebo (0 mg/kg), or AZD1152/AZD1152 hqpa Formulation E/F1/F2 at 25 mg/kg at the times indicated and sacrificed at the times indicated.
Bone marrows samples were extracted from each animal. Firstly samples of bone marrow were processed for pathological assessment. […] Bone marrow integrity was scored by the pathologist. […]
Bone marrow samples were extracted from each animal and processed for pathological assessment. […] Bone marrow integrity was scored by the pathologist. […]

bone marrow [3] = assay: Bone marrow cellularity by FACS (total nucleated cells); assay type: in vivo, rat; conditions: 25 mg/kg IV; FIG. 14
Procedure: as §1
Secondly bone marrow flushes taken to examine bone marrow cellularity by FACs. At termination bone marrow from each Femur was taken into 50% FBS and 50% PBS on ice. Cells were pelleted by centrifugation at 4° C. and re-suspended in PBS. Cells were pelleted again at 4° C. and re-suspended in PBS. 50 μl of LDS-751 (0.5 mg/ml in methanol) was added and cells vortexed. Finally the cells were filtered through a 50 micron filter into a FACS tube. Samples were analysed on a FACS Canto (Beckton Dickinson). A bone marrow hypocellularity is represented as a total of nucleated cells relative to untreated controls. The percentage cellularity of each bone marrow sample in each individual animal are shown. The dotted line represents the lowest percentage total nucleated cell value seen in animals receiving only vehicle (empty nanoparticle).

[4] = system: SW620 human tumour xenograft; assay: SW620 anti-tumour study in male nude mouse; assay type: in vivo
Procedure: Male nude mice were bred at AstraZeneca. Animals were inoculated in the flank with SW620 human tumour cells, and then randomized onto study when tumours reached approximately 0.25 cm^3. AZD1152 was dosed in tris buffer vehicle at the concentration indicated. AZD1152 hqpa nanoparticle formulation E was dosed in physiological saline. Previous pre-clinical work and methodologies with AZD1152 are published in Wilkinson et al, Clinical Cancer Research 2007 (13) 3682. […] In this study AZD1152 was dosed on day 0-3 at 25 mg/kg (total 100 mg/kg). Formulation E was dosed at a variety of different schedules as described above.

[5] = system: histone H3 phosphorylation on Ser10 (pHH3), surrogate marker of Aurora B kinase activity; assay: Tumour phospho-histone H3 (pHH3) biomarker in SW620 tumours by flow cytometry; assay type: in vivo, rat; conditions: 24 hrs post single dose 25 mg/kg IV
Procedure: This experiment compares the effect of Formulation E, F1 and F2 on a phospho-histone H3 phosphorylation (pHH3) in SW620 tumours. AZD1152 was included as a positive control. The activity was measured as an inhibition of histone H3 phosphorylation on Ser^10 (pHH3 as a sensitive, highly dynamic surrogate marker of Aurora B kinase activity). Average level of pHH3 positivity [%] was calculated for the cells in G2/M phase of the cell cycle for each treatment group at 24 hrs and 96 hrs post 1st dose and compared to the pHH3 level observed for the cells in G2/M cell cycle phase that were extracted from the tumours treated with BIND Placebo (referred here as 100%). Statistical significance was calculated using Student t-test assuming unequal variances (*p<0.05, **p<0.01, ***p<001, n.s. P>0.05). […]
The activity was measured as an inhibition of histone H3 phosphorylation on Ser10 (pHH3 as a sensitive, highly dynamic surrogate marker of Aurora B kinase activity). Average level of pHH3 positivity [%] was calculated for the cells in G2/M phase of the cell cycle for each treatment group at 24, 48, 72, 96 and 120 hrs post 1 dose and compared to the pHH3 level observed for the cells in G2/M cell cycle phase that were extracted from the tumours treated with BIND Placebo (referred here as 100%). […]

[6] = reported (SciFinder); cited from earlier work
[7] = reported (SciFinder); cited from earlier work; remark: listed apart in the source

- pKa1 [1]: 5.7
- pKa2 [1]: 8.46
Compound: CCN(CCO)CCCOc1ccc2c(Nc3cc(CC(=O)Nc4cccc(F)c4)[nH]n3)ncnc2c1 [AZD1152 hqpa, 2-(3-((7-(3-(ethyl(2-hydroxyethyl)amino)propoxy)quinazolin-4-yl)amino)-1H-pyrazol-5-yl)-N-(3-fluorophenyl)acetamide]

- bone marrow cellularity, total nucleated cells relative to untreated controls (bone marrow [3]): large impact on bone marrow
Compound: CCN(CCCOc1ccc2c(Nc3cc(CC(=O)Nc4cccc(F)c4)n[nH]3)ncnc2c1)CCOP(=O)(O)O [AZD1152, 2-(ethyl(3-((4-((5-(2-((3-fluorophenyl)amino)-2-oxoethyl)-1H-pyrazol-3-yl)amino)quinazolin-7-yl)oxy)propyl)amino)ethyl dihydrogen phosphate]
- bone marrow hypocellularity score (0-4) (bone marrow [2]): large impact on bone marrow
- efficacy of IV 25 mg/kg for 4 days (100 mg/kg total dose) ([4]; SW620 xenograft model in rat and mouse): maximal efficacy
- dose at which maximum activity was achieved ([4]; total dose equivalent, SW620): 100 mg/kg
- proportion of pHH3-positive cells within G2/M phase ([5]; FIG. 12): maximally suppressed
- proportion of pHH3-positive cells within G2/M phase ([5]; FIG. 15): maximally suppressed

Compound: O=C(O)c1cc2ccccc2c(Cc2c(O)c(C(=O)O)cc3ccccc23)c1O [pamoic acid, 4,4′-methylenebis[3-hydroxy-2-naphthoic acid]]
- pKa1 [6]: 2.67
- log P [7]: 6.169

From US10577351B2, “Therapeutic polymeric nanoparticles and methods of making and using same” (ASTRAZENECA AB, priority 2013, dated 2020)
